± gives the expanded uncertainty stated by the source.
Assay: xn = mol fraction of the nth substance listed
Conditions: Liquid, Vibrating tube method

CCCCCCCCCCCCC [tridecane] + O=C=O
Conditions	mass density [kg/m3]
333.3 K, 17000 kPa, x2 = 0.2526	746.5 ± 0.4
333.3 K, 18000 kPa, x2 = 0.0955	743.9 ± 0.4
333.3 K, 18000 kPa, x2 = 0.2526	747.3 ± 0.4
333.3 K, 19000 kPa, x2 = 0.0955	744.6 ± 0.4
333.3 K, 19000 kPa, x2 = 0.2526	748.1 ± 0.4
333.3 K, 20000 kPa, x2 = 0.0955	745.3 ± 0.4
333.3 K, 20000 kPa, x2 = 0.2526	748.9 ± 0.4
333.3 K, 21000 kPa, x2 = 0.0955	746.1 ± 0.4
333.3 K, 21000 kPa, x2 = 0.2526	749.7 ± 0.4
333.3 K, 22000 kPa, x2 = 0.0955	746.7 ± 0.4
333.3 K, 22000 kPa, x2 = 0.2526	750.5 ± 0.4
333.3 K, 23000 kPa, x2 = 0.0955	747.4 ± 0.4
333.3 K, 23000 kPa, x2 = 0.2526	751.2 ± 0.4
333.3 K, 24000 kPa, x2 = 0.0955	748.1 ± 0.4
333.3 K, 24000 kPa, x2 = 0.2526	751.9 ± 0.4
333.3 K, 25000 kPa, x2 = 0.0955	748.7 ± 0.4
333.3 K, 25000 kPa, x2 = 0.2526	752.6 ± 0.4
343.02 K, 8000 kPa, x2 = 0.5259	739.5 ± 0.3
343.02 K, 9000 kPa, x2 = 0.5259	740.9 ± 0.3
343.02 K, 10000 kPa, x2 = 0.5259	742.3 ± 0.3
343.02 K, 11000 kPa, x2 = 0.5259	743.7 ± 0.3
343.02 K, 12000 kPa, x2 = 0.5259	745.1 ± 0.3
343.02 K, 13000 kPa, x2 = 0.5259	746.4 ± 0.3
343.02 K, 14000 kPa, x2 = 0.5259	747.6 ± 0.3
343.02 K, 15000 kPa, x2 = 0.5259	748.9 ± 0.3
343.02 K, 16000 kPa, x2 = 0.5259	750.1 ± 0.3
343.02 K, 17000 kPa, x2 = 0.5259	751.3 ± 0.4
343.02 K, 18000 kPa, x2 = 0.5259	752.5 ± 0.4
343.02 K, 19000 kPa, x2 = 0.5259	753.7 ± 0.4
343.02 K, 20000 kPa, x2 = 0.5259	754.8 ± 0.4
343.02 K, 21000 kPa, x2 = 0.5259	755.9 ± 0.4
343.02 K, 22000 kPa, x2 = 0.5259	757 ± 0.4
343.02 K, 23000 kPa, x2 = 0.5259	758.1 ± 0.4
343.02 K, 24000 kPa, x2 = 0.5259	759.2 ± 0.4
343.02 K, 25000 kPa, x2 = 0.5259	760.2 ± 0.4
343.13 K, 15000 kPa, x2 = 0.8978	710.8 ± 0.5
343.13 K, 16000 kPa, x2 = 0.8978	723.5 ± 0.5
343.13 K, 17000 kPa, x2 = 0.8978	733.2 ± 0.5
343.13 K, 18000 kPa, x2 = 0.8978	741.1 ± 0.5
343.13 K, 19000 kPa, x2 = 0.8978	748 ± 0.4
343.13 K, 20000 kPa, x2 = 0.8978	755 ± 0.4
343.13 K, 21000 kPa, x2 = 0.8978	761.4 ± 0.4
343.13 K, 22000 kPa, x2 = 0.8978	767.3 ± 0.4
343.13 K, 23000 kPa, x2 = 0.8978	772.8 ± 0.4
343.13 K, 24000 kPa, x2 = 0.8978	778 ± 0.4
343.13 K, 25000 kPa, x2 = 0.8978	782.8 ± 0.4
343.14 K, 9000 kPa, x2 = 0.0955	729.8 ± 0.3
343.14 K, 9000 kPa, x2 = 0.2526	732.2 ± 0.3
343.14 K, 10000 kPa, x2 = 0.0955	730.6 ± 0.3
343.14 K, 10000 kPa, x2 = 0.2526	733.2 ± 0.3
343.14 K, 11000 kPa, x2 = 0.0955	731.5 ± 0.3
343.14 K, 11000 kPa, x2 = 0.2526	734.1 ± 0.3
343.14 K, 12000 kPa, x2 = 0.0955	732.4 ± 0.4
343.14 K, 12000 kPa, x2 = 0.2526	735 ± 0.3
343.14 K, 13000 kPa, x2 = 0.0955	733.2 ± 0.4
343.14 K, 13000 kPa, x2 = 0.2526	736 ± 0.3
343.14 K, 14000 kPa, x2 = 0.0955	734.1 ± 0.4
343.14 K, 14000 kPa, x2 = 0.2526	736.9 ± 0.4
343.14 K, 15000 kPa, x2 = 0.0955	734.9 ± 0.4
343.14 K, 15000 kPa, x2 = 0.2526	737.8 ± 0.4
343.14 K, 16000 kPa, x2 = 0.0955	735.7 ± 0.4
343.14 K, 16000 kPa, x2 = 0.2526	738.6 ± 0.4
343.14 K, 17000 kPa, x2 = 0.0955	736.5 ± 0.4
343.14 K, 17000 kPa, x2 = 0.2526	739.5 ± 0.4
343.14 K, 18000 kPa, x2 = 0.0955	737.3 ± 0.4
343.14 K, 18000 kPa, x2 = 0.2526	740.4 ± 0.4
343.14 K, 19000 kPa, x2 = 0.0955	738.1 ± 0.4
343.14 K, 19000 kPa, x2 = 0.2526	741.2 ± 0.4
343.14 K, 20000 kPa, x2 = 0.0955	738.9 ± 0.4
343.14 K, 20000 kPa, x2 = 0.2526	742 ± 0.4
343.14 K, 21000 kPa, x2 = 0.0955	739.6 ± 0.4
343.14 K, 21000 kPa, x2 = 0.2526	742.8 ± 0.4
343.14 K, 22000 kPa, x2 = 0.0955	740.4 ± 0.4
343.14 K, 22000 kPa, x2 = 0.2526	743.6 ± 0.4
343.14 K, 23000 kPa, x2 = 0.0955	741.1 ± 0.4
343.14 K, 23000 kPa, x2 = 0.2526	744.4 ± 0.4
343.14 K, 24000 kPa, x2 = 0.0955	741.8 ± 0.4
343.14 K, 24000 kPa, x2 = 0.2526	745.1 ± 0.4
343.14 K, 25000 kPa, x2 = 0.0955	742.5 ± 0.5
343.14 K, 25000 kPa, x2 = 0.2526	745.9 ± 0.4
343.32 K, 14000 kPa, x2 = 0.7549	752.1 ± 0.4
343.32 K, 15000 kPa, x2 = 0.7549	755.2 ± 0.3
343.32 K, 16000 kPa, x2 = 0.7549	758 ± 0.3
343.32 K, 17000 kPa, x2 = 0.7549	760.9 ± 0.4
343.32 K, 18000 kPa, x2 = 0.7549	763.8 ± 0.4
343.32 K, 19000 kPa, x2 = 0.7549	766.7 ± 0.4
343.32 K, 20000 kPa, x2 = 0.7549	769.6 ± 0.4
343.32 K, 21000 kPa, x2 = 0.7549	772.4 ± 0.4
343.32 K, 22000 kPa, x2 = 0.7549	775.2 ± 0.4
343.32 K, 23000 kPa, x2 = 0.7549	777.9 ± 0.4
343.32 K, 24000 kPa, x2 = 0.7549	780.7 ± 0.4
343.32 K, 25000 kPa, x2 = 0.7549	783.5 ± 0.4
353.12 K, 9000 kPa, x2 = 0.0955	722.6 ± 0.3
353.12 K, 9000 kPa, x2 = 0.2526	724.8 ± 0.3
353.12 K, 10000 kPa, x2 = 0.0955	723.6 ± 0.3
353.12 K, 10000 kPa, x2 = 0.2526	725.8 ± 0.3
353.12 K, 11000 kPa, x2 = 0.0955	724.5 ± 0.4
353.12 K, 11000 kPa, x2 = 0.2526	726.8 ± 0.3
353.12 K, 12000 kPa, x2 = 0.0955	725.4 ± 0.4
353.12 K, 12000 kPa, x2 = 0.2526	727.8 ± 0.3
353.12 K, 13000 kPa, x2 = 0.0955	726.3 ± 0.4
353.12 K, 13000 kPa, x2 = 0.2526	728.8 ± 0.4
353.12 K, 14000 kPa, x2 = 0.0955	727.2 ± 0.4
353.12 K, 14000 kPa, x2 = 0.2526	729.7 ± 0.4
353.12 K, 15000 kPa, x2 = 0.0955	728.1 ± 0.4
353.12 K, 15000 kPa, x2 = 0.2526	730.7 ± 0.4
353.12 K, 16000 kPa, x2 = 0.0955	729 ± 0.4
353.12 K, 16000 kPa, x2 = 0.2526	731.6 ± 0.4
353.12 K, 17000 kPa, x2 = 0.0955	729.9 ± 0.4
353.12 K, 17000 kPa, x2 = 0.2526	732.5 ± 0.4
353.12 K, 18000 kPa, x2 = 0.0955	730.7 ± 0.4
353.12 K, 18000 kPa, x2 = 0.2526	733.4 ± 0.4
353.12 K, 19000 kPa, x2 = 0.0955	731.5 ± 0.4
353.12 K, 19000 kPa, x2 = 0.2526	734.3 ± 0.4

Reference: the NIST ThermoML archive (doi:10.1021/je400056z)
